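Abbreviation: GI50, concentration required for 50% inhibition of growth. The concentration for full growth arrest is given as TGI.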
Tests used:
Assay in all cases: NCI tumour cell line growth inhibition, 384-well format
[1] = tested on: 786-0 renal
[2] = tested on: A498 renal
[3] = tested on: A549 NSCLC
[4] = tested on: ACHN renal
[5] = tested on: BT-549 breast
[6] = tested on: CAKI-1 renal
[7] = tested on: COLO 205 colon
[8] = tested on: DU-145 prostate
[9] = tested on: EKVX NSCLC
[10] = tested on: HCC-2998 colon
[11] = tested on: HCT-116 colon
[12] = tested on: HCT-15 colon
[13] = tested on: HL-60(TB) leukemia
[14] = tested on: HOP-62 NSCLC
[15] = tested on: HOP-92 NSCLC
[16] = tested on: HS 578T breast
[17] = tested on: HT29 colon
[18] = tested on: IGROV1 ovarian
[19] = tested on: K-562 leukemia
[20] = tested on: KM12 colon
[21] = tested on: LOX IMVI melanoma
[22] = tested on: M14 melanoma
[23] = tested on: MALME-3M melanoma
[24] = tested on: MCF7 breast
[25] = tested on: MDA-MB-231 breast
[26] = tested on: MDA-MB-435 melanoma
[27] = tested on: MDA-MB-468 breast
[28] = tested on: NCI-H226 lung
[29] = tested on: NCI-H23 lung
[30] = tested on: NCI-H322M lung
[31] = tested on: NCI-H460 NSCLC
[32] = tested on: NCI-H522 lung
[33] = tested on: NCI/ADR-RES ovarian
[34] = tested on: OVCAR-3 ovarian
[35] = tested on: OVCAR-4 ovarian
[36] = tested on: OVCAR-5 ovarian
[37] = tested on: OVCAR-8 ovarian
[38] = tested on: PC-3 prostate
[39] = tested on: RPMI-8226 leukemia
[40] = tested on: RXF 393 renal
[41] = tested on: SF-268 CNS
[42] = tested on: SF-295 CNS
[43] = tested on: SF-539 CNS
[44] = tested on: SK-MEL-2 melanoma
[45] = tested on: SK-MEL-28 melanoma
[46] = tested on: SK-MEL-5 melanoma
[47] = tested on: SK-OV-3 ovarian
[48] = tested on: SN12C renal
[49] = tested on: SNB-19 CNS
[50] = tested on: SNB-75 CNS
[51] = tested on: SW-620 colon
[52] = tested on: T-47D breast
[53] = tested on: TK-10 renal
[54] = tested on: U251 glioblastoma
[55] = tested on: UACC-257 melanoma
[56] = tested on: UACC-62 melanoma
[57] = tested on: UO-31 renal
[58] = tested on: CCRF-CEM leukemia
[59] = tested on: MOLT-4 leukemia
[60] = tested on: SR leukemia

Structure (SMILES): CC[C@@]1(O)C(=O)OCc2c1cc1n(c2=O)Cc2cc3c(CN(C)C)c(O)ccc3nc2-1
- GI50 [1]: 18.2 nM
- TGI [1]: 63.1 nM
- GI50 [2]: 40.1 nM
- TGI [2]: 255 nM
- GI50 [3]: 50.1 nM
- TGI [3]: 1220 nM
- GI50 [4]: 20.4 nM
- TGI [4]: 47 nM
- GI50 [5]: < 15.6 nM
- TGI [5]: 71.5 nM
- GI50 [6]: 22.7 nM
- TGI [6]: 247 nM
- TGI [7]: 800 nM
- TGI [8]: 37.4 nM
- GI50 [9]: 366 nM
- TGI [9]: 1860 nM
- GI50 [10]: 118 nM
- TGI [10]: 311 nM
- TGI [11]: 222 nM
- GI50 [12]: 50.7 nM
- TGI [12]: 1130 nM
- GI50 [13]: < 11.3 nM
- TGI [13]: 23.9 nM
- TGI [14]: 17.5 nM
- GI50 [15]: 32.4 nM
- TGI [15]: 266 nM
- GI50 [16]: < 39.9 nM
- TGI [16]: 715 nM
- GI50 [17]: 49.6 nM
- TGI [17]: 200 nM
- GI50 [18]: 66.4 nM
- TGI [18]: 749 nM
- GI50 [19]: 15.9 nM
- TGI [19]: 253 nM
- GI50 [20]: 117 nM
- TGI [20]: 673 nM
- GI50 [21]: 11.4 nM
- TGI [21]: 142 nM
- GI50 [22]: 20.6 nM
- TGI [22]: 64.7 nM
- GI50 [23]: 130 nM
- TGI [23]: 996 nM
- GI50 [24]: < 15.7 nM
- TGI [24]: 3480 nM
- GI50 [25]: 182 nM
- TGI [25]: 781 nM
- GI50 [26]: 181 nM
- TGI [26]: 619 nM
- GI50 [27]: 10.2 nM
- TGI [27]: < 16.5 nM
- GI50 [28]: 19.9 nM
- TGI [28]: 122 nM
- GI50 [29]: 18.8 nM
- TGI [29]: 56.5 nM
- GI50 [30]: 143 nM
- TGI [30]: 451 nM
- GI50 [31]: 19.8 nM
- TGI [31]: 100 nM
- GI50 [32]: 19.8 nM
- TGI [32]: 236 nM
- GI50 [33]: 82 nM
- TGI [33]: 326 nM
- GI50 [34]: 53.3 nM
- TGI [34]: 282 nM
- GI50 [35]: 469 nM
- TGI [35]: 1700 nM
- GI50 [36]: 147 nM
- TGI [36]: 482 nM
- GI50 [37]: 17.1 nM
- TGI [37]: 180 nM
- GI50 [38]: 385 nM
- TGI [38]: > 36600 nM
- GI50 [39]: 28.6 nM
- TGI [39]: 80.9 nM
- GI50 [40]: 48.3 nM
- TGI [40]: 143 nM
- TGI [41]: 26 nM
- GI50 [42]: < 13.1 nM
- TGI [42]: 26.5 nM
- GI50 [43]: 16.7 nM
- TGI [43]: 42.6 nM
- GI50 [44]: 219 nM
- TGI [44]: 529 nM
- GI50 [45]: 72.1 nM
- TGI [45]: 1290 nM
- GI50 [46]: 23.6 nM
- TGI [46]: 69.1 nM
- GI50 [47]: 31.6 nM
- TGI [47]: 129 nM
- GI50 [48]: 22 nM
- TGI [48]: 75.3 nM
- GI50 [49]: 24.5 nM
- TGI [49]: 228 nM
- GI50 [50]: 25.2 nM
- TGI [50]: 60 nM
- GI50 [51]: < 16.6 nM
- TGI [51]: 637 nM
- GI50 [52]: 21.8 nM
- TGI [52]: 790 nM
- GI50 [53]: 296 nM
- TGI [53]: 3130 nM
- GI50 [54]: < 13 nM
- TGI [54]: 58.1 nM
- GI50 [55]: 154 nM
- TGI [55]: 1540 nM
- GI50 [56]: 16 nM
- TGI [56]: 63.2 nM
- GI50 [57]: 41.6 nM
- TGI [57]: 168 nM

Structure (SMILES): CCC1=C[C@@H]2CN(C1)Cc1c([nH]c3ccccc13)[C@@](C(=O)OC)(c1cc3c(cc1OC)N(C)[C@H]1[C@@](O)(C(=O)OC)[C@H](OC(C)=O)[C@]4(CC)C=CCN5CC[C@]31[C@@H]54)C2
- GI50 [1]: 367 nM
- TGI [1]: 6050 nM
- GI50 [2]: 203 nM
- TGI [2]: 2390 nM
- GI50 [3]: 270 nM
- TGI [3]: 11800 nM
- GI50 [4]: 2770 nM
- TGI [4]: 24500 nM
- GI50 [5]: 64.3 nM
- TGI [5]: 710 nM
- GI50 [6]: 651 nM
- TGI [6]: 8980 nM
- GI50 [58]: 53.5 nM
- TGI [58]: 104 nM
- GI50 [7]: 51.6 nM
- TGI [7]: 506 nM
- GI50 [8]: 139 nM
- TGI [8]: 1740 nM
- GI50 [9]: 650 nM
- TGI [9]: 16200 nM
- GI50 [10]: 66.7 nM
- TGI [10]: 286 nM
- GI50 [11]: 73.9 nM
- TGI [11]: 3920 nM
- GI50 [12]: 971 nM
- TGI [12]: 8150 nM
- GI50 [13]: 20.1 nM
- TGI [13]: 37.8 nM
- GI50 [14]: 212 nM
- TGI [14]: 12600 nM
- GI50 [15]: 993 nM
- TGI [15]: 11900 nM
- GI50 [16]: 63.3 nM
- TGI [16]: 174 nM
- GI50 [17]: 58.5 nM
- TGI [17]: 1100 nM
- GI50 [18]: 652 nM
- TGI [18]: > 32700 nM
- GI50 [19]: 42.1 nM
- TGI [19]: 174 nM
- GI50 [20]: 50.8 nM
- TGI [20]: 4300 nM
- GI50 [21]: 171 nM
- TGI [21]: 9700 nM
- GI50 [22]: 214 nM
- TGI [22]: 13400 nM
- GI50 [23]: 120 nM
- TGI [23]: 18700 nM
- GI50 [24]: 65.1 nM
- TGI [24]: 4760 nM
- GI50 [25]: 314 nM
- TGI [25]: 14200 nM
- GI50 [26]: 15.5 nM
- TGI [26]: 47.2 nM
- GI50 [27]: 17.4 nM
- TGI [27]: 35.5 nM
- GI50 [59]: 20.2 nM
- TGI [59]: 36.6 nM
- GI50 [28]: 681 nM
- TGI [28]: 18600 nM
- GI50 [29]: 251 nM
- TGI [29]: 881 nM
- GI50 [30]: 645 nM
- TGI [30]: 17800 nM
- GI50 [31]: 69.4 nM
- TGI [31]: 220 nM
- GI50 [32]: 20.9 nM
- TGI [32]: 46.2 nM
- GI50 [33]: 24800 nM
- TGI [33]: > 64300 nM
- GI50 [34]: 34.3 nM
- TGI [34]: 171 nM
- GI50 [35]: 2670 nM
- TGI [35]: > 62600 nM
- GI50 [36]: 638 nM
- TGI [36]: 19700 nM
- GI50 [37]: 237 nM
- TGI [37]: 768 nM
- GI50 [38]: 210 nM
- TGI [38]: 12600 nM
- GI50 [39]: 33.6 nM
- TGI [39]: 83.4 nM
- GI50 [41]: 228 nM
- TGI [41]: 12900 nM
- GI50 [42]: 95.1 nM
- TGI [42]: 239 nM
- GI50 [43]: 76.5 nM
- TGI [43]: 243 nM
- GI50 [44]: 37 nM
- TGI [44]: 216 nM
- GI50 [45]: 1520 nM
- TGI [45]: 16100 nM
- GI50 [46]: 22 nM
- TGI [46]: 49.4 nM
- GI50 [47]: 113 nM
- TGI [47]: 5850 nM
- GI50 [48]: 210 nM
- TGI [48]: 20100 nM
- GI50 [49]: 180 nM
- TGI [49]: 4700 nM
- GI50 [50]: 48.8 nM
- TGI [50]: 126 nM
- GI50 [60]: < 10 nM
- TGI [60]: 16.1 nM
- GI50 [51]: 155 nM
- TGI [51]: 15100 nM
- GI50 [52]: 10600 nM
- TGI [52]: 25500 nM
- GI50 [53]: 1110 nM
- TGI [53]: 18600 nM
- GI50 [54]: 75.4 nM
- TGI [54]: 1810 nM
- GI50 [55]: 1260 nM
- TGI [55]: 15400 nM
- GI50 [56]: 35.9 nM
- TGI [56]: 901 nM
- GI50 [57]: 4510 nM
- TGI [57]: 17900 nM
